This passage reports EC50 and Emax results from US20240208992A1, “MACROCYCLES AS CFTR MODULATORS” (Idorsia Pharmaceuticals Ltd, priority 2021, published 2024).

For this assay, the target named is human F508del-CFTR (Homo sapiens, UniProt P13569, DEL508-508). In words: F508del-CFTR cell surface expression (corrector activity), DiscoveRx ß-galactosidase complementation chemiluminescence assay in recombinant U2OS cell line.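 For all read-outs here: U2OS cells co-expressing ProLink-tagged F508del-CFTR and a membrane-anchored enzyme acceptor, where more surface CFTR restores β-galactosidase activity measured by chemiluminescence.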 The following applies: for EC50: EC50, F508del-CFTR cell surface expression; for Emax: U2OS.
Sequence of human F508del-CFTR (P13569 with tags, fused parts or gaps DEL508-508): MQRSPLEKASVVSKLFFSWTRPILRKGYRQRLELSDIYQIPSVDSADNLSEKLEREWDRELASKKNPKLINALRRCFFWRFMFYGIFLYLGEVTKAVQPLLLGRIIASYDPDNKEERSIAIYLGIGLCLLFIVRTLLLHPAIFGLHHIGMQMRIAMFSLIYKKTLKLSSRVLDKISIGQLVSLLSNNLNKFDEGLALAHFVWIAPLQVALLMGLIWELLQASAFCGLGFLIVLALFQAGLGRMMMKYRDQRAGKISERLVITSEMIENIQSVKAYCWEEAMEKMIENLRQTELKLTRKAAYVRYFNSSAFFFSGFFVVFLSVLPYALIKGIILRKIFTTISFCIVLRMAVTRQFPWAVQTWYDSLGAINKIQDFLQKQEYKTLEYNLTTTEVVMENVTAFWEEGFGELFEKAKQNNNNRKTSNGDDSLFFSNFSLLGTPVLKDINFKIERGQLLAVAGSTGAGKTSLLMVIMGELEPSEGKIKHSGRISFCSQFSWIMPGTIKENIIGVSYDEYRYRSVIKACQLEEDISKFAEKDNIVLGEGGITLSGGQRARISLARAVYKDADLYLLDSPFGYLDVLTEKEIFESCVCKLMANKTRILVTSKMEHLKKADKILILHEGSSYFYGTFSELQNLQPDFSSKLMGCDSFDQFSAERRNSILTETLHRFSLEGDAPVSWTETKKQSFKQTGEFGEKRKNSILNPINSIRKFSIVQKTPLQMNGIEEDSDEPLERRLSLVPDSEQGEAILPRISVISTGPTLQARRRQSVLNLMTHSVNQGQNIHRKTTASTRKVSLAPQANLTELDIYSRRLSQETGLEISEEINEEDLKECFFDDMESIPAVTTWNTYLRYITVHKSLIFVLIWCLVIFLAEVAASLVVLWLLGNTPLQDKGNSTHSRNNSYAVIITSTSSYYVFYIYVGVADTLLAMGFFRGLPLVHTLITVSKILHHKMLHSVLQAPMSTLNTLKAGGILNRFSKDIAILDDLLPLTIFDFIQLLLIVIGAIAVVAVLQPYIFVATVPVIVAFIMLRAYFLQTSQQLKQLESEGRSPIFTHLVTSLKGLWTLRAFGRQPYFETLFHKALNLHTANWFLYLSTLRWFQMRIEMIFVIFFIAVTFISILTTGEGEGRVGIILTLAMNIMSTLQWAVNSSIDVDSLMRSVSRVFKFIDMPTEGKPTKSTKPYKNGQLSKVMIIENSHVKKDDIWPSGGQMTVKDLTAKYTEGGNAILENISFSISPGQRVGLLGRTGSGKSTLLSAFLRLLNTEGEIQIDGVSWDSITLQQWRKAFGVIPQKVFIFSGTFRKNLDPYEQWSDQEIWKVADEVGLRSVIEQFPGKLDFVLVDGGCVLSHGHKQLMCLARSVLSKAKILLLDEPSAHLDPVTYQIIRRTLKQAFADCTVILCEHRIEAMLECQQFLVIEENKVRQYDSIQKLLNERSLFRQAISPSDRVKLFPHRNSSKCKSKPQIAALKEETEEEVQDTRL
Where [1] appears, read: U2OS cells, 16h compound incubation, geomean values.
The mark [2] stands for this setting: in relation to Emax of corrector lumacaftor (=100%), arithmetic mean values.
[3] abbreviates: U2OS cells, 16h compound incubation, geomean of several measurements.
The mark [4] stands for this setting: in relation to the Emax of the corrector lumacaftor (=100%), U2OS cells, 16h compound incubation, arithmetic mean.

With `COc1cc(CCNC(=O)[C@@H]2CC(=O)N(C)[C@@H](CC(C)C)C(=O)N(C)[C@@H](CC(F)(F)F)C(=O)N[C@H](Cc3ccccc3)COc3cc(C)nc(OC)c3C(=O)N2)on1` [Example 792, (3R,6S,9S,13S)-3-benzyl-9-isobutyl-16-methoxy-N-(2-(3-methoxyisoxazol-5-yl)ethyl)-7,10,18-trimethyl-5,8,11,15-tetraoxo-6-(2,2,2-trifluoroethyl)-2,3,4,5,6,7,8,9,10,11,12,13,14,15-tetradecahydropyrido[3,4-p][1]oxa[4,7,10,14]tetraazacycloheptadecine-13-carboxamide], under setting [1], the EC50 (as a rule, the concentration giving half of the maximal effect) worked out at 628 nM. Besides, under setting [2], the Emax (as a rule, the maximal effect, on the per cent scale that the assay sets) worked out at 261%.
For `CC(C)C[C@H]1C(=O)N2CCCC[C@H]2C(=O)N[C@H](Cc2ccccc2)COc2ccc3ncc(F)cc3c2C(=O)N[C@H](C(=O)NCCc2noc(C3CC3)n2)CC(=O)N1C` [Example 793, (9S,13S,19aS,22R)-22-benzyl-N-(2-(5-cyclopropyl-1,2,4-oxadiazol-3-yl)ethyl)-5-fluoro-13-isobutyl-12-methyl-7,11,14,20-tetraoxo-7,8,9,10,11,12,13,14,17,18,19,19a,20,21,22,23-hexadecahydro-16H-pyrido[2′,11:6,7][1]oxa[4,7,10,14]tetraazacycloheptadecino[16,17-f]quinoline-9-carboxamide], in that order: 235 nM and 105%.
For `CC(C)C[C@H]1C(=O)N(C)[C@H](Cc2nc(-c3ccc(F)cn3)no2)C(=O)N[C@H](Cc2ccccc2)COc2ccc3ncc(F)cc3c2C(=O)N[C@H](C(=O)NCCc2noc(C3CC3)n2)CC(=O)N1C` [Example 794, (3S,7S,10R,13R)-13-benzyl-N-(2-(5-cyclopropyl-1,2,4-oxadiazol-3-yl)ethyl)-20-fluoro-10-((3-(5-fluoropyridin-2-yl)-1,2,4-oxadiazol-5-yl)methyl)-7-isobutyl-6,9-dimethyl-1,5,8,11-tetraoxo-1,2,3,4,5,6,7,8,9,10,11,12,13,14-tetradecahydro-[1]oxa[4,7,10,14]tetraazacycloheptadecino[16,17-f]quinoline-3-carboxamide], in that order: 83 nM and 354%.
For `COc1cc(CCNC(=O)[C@@H]2CC(=O)N(C)[C@@H](CC(C)C)C(=O)N(C)[C@H](Cc3nc(-c4ccc(F)cn4)no3)C(=O)N[C@H](Cc3ccccc3)COc3ccc4ncc(F)cc4c3C(=O)N2)on1` [Example 795, (3S,7S,10R,13R)-13-benzyl-20-fluoro-10-((3-(5-fluoropyridin-2-yl)-1,2,4-oxadiazol-5-yl)methyl)-7-isobutyl-N-(2-(3-methoxyisoxazol-5-yl)ethyl)-6,9-dimethyl-1,5,8,11-tetraoxo-1,2,3,4,5,6,7,8,9,10,11,12,13,14-tetradecahydro-[1]oxa[4,7,10,14]tetraazacycloheptadecino[16,17-f]quinoline-3-carboxamide], in that order: 141 nM and 384%.
As for `COc1cc(CCNC(=O)[C@@H]2CC(=O)N(C)[C@@H](CC(C)C)C(=O)N3CCCC[C@@H]3C(=O)N[C@H](Cc3ccccc3)COc3ccc4cnc(C)cc4c3C(=O)N2)on1` [Example 796, (9S,13S,19aR,22R)-22-benzyl-13-isobutyl-N-(2-(3-methoxyisoxazol-5-yl)ethyl)-5,12-dimethyl-7,11,14,20-tetraoxo-7,8,9,10,11,12,13,14,17,18,19,19a,20,21,22,23-hexadecahydro-16H-pyrido[2′,1′:6,7][1]oxa[4,7,10,14]tetraazacycloheptadecino[16,17-f]isoquinoline-9-carboxamide], under setting [1], the EC50 was determined as 156 nM. Also, under setting [2], the Emax is 321%.
For `CC(C)C[C@H]1C(=O)N(C)[C@H](C)C(=O)N[C@H](Cc2ccccc2)COc2ccc3ncc(F)cc3c2C(=O)N[C@H](C(=O)NCCc2cc(C3CC3)no2)CC(=O)N1C` [Example 797, (3S,7S,10R,13R)-13-benzyl-N-(2-(3-cyclopropylisoxazol-5-yl)ethyl)-20-fluoro-7-isobutyl-6,9,10-trimethyl-1,5,8,11-tetraoxo-1,2,3,4,5,6,7,8,9,10,11,12,13,14-tetradecahydro-[1]oxa[4,7,10,14]tetraazacycloheptadecino[16,17-f]quinoline-3-carboxamide], in that order: 399 nM and 308%.
For `CC(C)C[C@H]1C(=O)N(C)[C@H](C)C(=O)N[C@H](Cc2ccccc2)COc2ccc3ncc(F)cc3c2C(=O)N[C@H](C(=O)NCCc2cc(C3CC3)on2)CC(=O)N1C` [Example 798, (3S,7S,10R,13R)-13-benzyl-N-(2-(5-cyclopropylisoxazol-3-yl)ethyl)-20-fluoro-7-isobutyl-6,9,10-trimethyl-1,5,8,11-tetraoxo-1,2,3,4,5,6,7,8,9,10,11,12,13,14-tetradecahydro-[1]oxa[4,7,10,14]tetraazacycloheptadecino[16,17-f]quinoline-3-carboxamide], the concentration giving a half-maximal response (EC50) under setting [3] is 197 nM. For the same compound, under setting [4], the Emax was 324%.
For `CC(C)C[C@H]1C(=O)N(C)[C@H](C)C(=O)N[C@H](Cc2ccccc2)COc2ccc3ncc(F)cc3c2C(=O)N[C@H](C(=O)NCCc2noc(C3CC3)n2)CC(=O)N1C` [Example 799, (3S,7S,10R,13R)-13-benzyl-N-(2-(5-cyclopropyl-1,2,4-oxadiazol-3-yl)ethyl)-20-fluoro-7-isobutyl-6,9,10-trimethyl-1,5,8,11-tetraoxo-1,2,3,4,5,6,7,8,9,10,11,12,13,14-tetradecahydro-[1]oxa[4,7,10,14]tetraazacycloheptadecino[16,17-f]quinoline-3-carboxamide] the same measures were 258 nM and 335%.
For `CC(C)C[C@H]1C(=O)N(C)[C@H](C)C(=O)N[C@H](Cc2ccccc2)COc2ccc3ncc(F)cc3c2C(=O)N[C@H](C(=O)NCCc2nc(C3CC3)no2)CC(=O)N1C` [Example 800, (3S,7S,10R,13R)-13-benzyl-N-(2-(3-cyclopropyl-1,2,4-oxadiazol-5-yl)ethyl)-20-fluoro-7-isobutyl-6,9,10-trimethyl-1,5,8,11-tetraoxo-1,2,3,4,5,6,7,8,9,10,11,12,13,14-tetradecahydro-[1]oxa[4,7,10,14]tetraazacycloheptadecino[16,17-f]quinoline-3-carboxamide], the concentration giving a half-maximal response (EC50) under setting [3] was determined as 266 nM. Under setting [4], the Emax was 352%.
For `CC(C)C[C@H]1C(=O)N(C)[C@H](CC(F)F)C(=O)N[C@H](Cc2ccccc2)COc2ccc3ncc(F)cc3c2C(=O)N[C@H](C(=O)NCCc2noc(C3CC3)n2)CC(=O)N1C` [Example 801, (3S,7S,10R,13R)-13-benzyl-N-(2-(5-cyclopropyl-1,2,4-oxadiazol-3-yl)ethyl)-10-(2,2-difluoroethyl)-20-fluoro-7-isobutyl-6,9-dimethyl-1,5,8,11-tetraoxo-1,2,3,4,5,6,7,8,9,10,11,12,13,14-tetradecahydro-[1]oxa[4,7,10,14]tetraazacycloheptadecino[16,17-f]quinoline-3-carboxamide], in that order: 149 nM and 330%.
